How the values were obtained:
[1] = biological target: T1, Ectonucleotide pyrophosphatase/phosphodiesterase family member 1 (Homo sapiens, UniProt P22413); experiment: Inhibition of ENPP1 (unknown origin) using cGAMP as substrate assessed as inhibition constant at pH 7.4
T1 sequence (P22413 whole entry): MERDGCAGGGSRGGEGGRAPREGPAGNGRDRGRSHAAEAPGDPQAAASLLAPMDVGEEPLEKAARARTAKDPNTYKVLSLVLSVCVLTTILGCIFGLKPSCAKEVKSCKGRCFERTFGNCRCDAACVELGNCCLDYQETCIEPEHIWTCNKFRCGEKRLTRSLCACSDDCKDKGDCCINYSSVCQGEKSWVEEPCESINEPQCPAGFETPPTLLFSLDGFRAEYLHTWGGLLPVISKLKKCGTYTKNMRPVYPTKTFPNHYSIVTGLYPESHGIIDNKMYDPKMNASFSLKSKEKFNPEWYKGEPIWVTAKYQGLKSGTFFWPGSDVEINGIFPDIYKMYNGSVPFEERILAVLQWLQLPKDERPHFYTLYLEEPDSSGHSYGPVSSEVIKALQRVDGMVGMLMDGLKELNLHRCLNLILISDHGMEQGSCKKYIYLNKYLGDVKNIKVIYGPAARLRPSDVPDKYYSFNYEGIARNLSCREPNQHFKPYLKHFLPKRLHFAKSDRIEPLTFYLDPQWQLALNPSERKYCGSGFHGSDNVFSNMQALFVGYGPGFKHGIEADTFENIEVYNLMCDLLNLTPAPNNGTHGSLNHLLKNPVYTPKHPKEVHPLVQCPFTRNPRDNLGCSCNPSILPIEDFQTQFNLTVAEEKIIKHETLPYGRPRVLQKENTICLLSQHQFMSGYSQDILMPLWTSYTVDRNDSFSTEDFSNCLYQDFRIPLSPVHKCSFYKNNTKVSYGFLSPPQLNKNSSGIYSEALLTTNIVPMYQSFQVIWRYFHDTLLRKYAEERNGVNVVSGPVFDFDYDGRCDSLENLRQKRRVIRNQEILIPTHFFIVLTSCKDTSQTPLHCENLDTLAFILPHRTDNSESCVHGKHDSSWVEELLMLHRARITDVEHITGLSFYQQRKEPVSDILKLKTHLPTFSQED

[2] = AUClast in CD-1 mouse at 50 mg/kg, po measured after 24 hrs by LC-MS/MS analysis; format: ADME, organism-based; settings: in vivo
[3] = biological target: T2, Ectonucleotide pyrophosphatase/phosphodiesterase family member 1 (Mus musculus, UniProt P06802); experiment: Inhibition of ENPP1 in mouse plasma using [32P]cGAMP as substrate; format: cell-free
T2 sequence (P06802 whole entry): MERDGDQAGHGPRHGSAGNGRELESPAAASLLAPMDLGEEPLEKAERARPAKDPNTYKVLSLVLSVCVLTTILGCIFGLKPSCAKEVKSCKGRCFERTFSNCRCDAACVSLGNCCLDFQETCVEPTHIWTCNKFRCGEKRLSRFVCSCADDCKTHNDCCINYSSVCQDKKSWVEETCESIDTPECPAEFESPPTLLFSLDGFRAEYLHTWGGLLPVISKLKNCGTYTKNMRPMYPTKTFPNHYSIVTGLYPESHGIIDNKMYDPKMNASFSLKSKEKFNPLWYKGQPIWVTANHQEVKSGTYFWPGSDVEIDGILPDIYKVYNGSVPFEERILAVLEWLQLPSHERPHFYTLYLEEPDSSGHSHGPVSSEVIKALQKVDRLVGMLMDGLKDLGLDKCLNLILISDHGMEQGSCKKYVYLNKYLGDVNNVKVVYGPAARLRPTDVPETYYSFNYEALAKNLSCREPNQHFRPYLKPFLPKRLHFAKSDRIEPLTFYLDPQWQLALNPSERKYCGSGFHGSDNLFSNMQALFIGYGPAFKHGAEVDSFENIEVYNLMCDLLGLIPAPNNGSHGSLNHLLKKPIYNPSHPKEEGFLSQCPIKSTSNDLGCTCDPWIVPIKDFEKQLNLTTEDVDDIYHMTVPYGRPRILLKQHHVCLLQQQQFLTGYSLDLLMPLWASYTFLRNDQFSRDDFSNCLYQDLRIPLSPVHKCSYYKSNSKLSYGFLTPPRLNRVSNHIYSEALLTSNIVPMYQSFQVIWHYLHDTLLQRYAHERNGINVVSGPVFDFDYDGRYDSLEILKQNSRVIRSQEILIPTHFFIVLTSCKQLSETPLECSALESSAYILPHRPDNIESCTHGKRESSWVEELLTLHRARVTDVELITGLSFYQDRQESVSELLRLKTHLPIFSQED

[4] = Cmax in CD-1 mouse at 50 mg/kg, po measured after 24 hrs by LC-MS/MS analysis; format: ADME, organism-based; settings: in vivo
[5] = biological target: T1, Ectonucleotide pyrophosphatase/phosphodiesterase family member 1; experiment: Inhibition of recombinant human ENPP1 using ATP as substrate assessed as inhibition constant incubated for 30 mins by Lineweaver-Burk plot analysis
[6] = biological target: T1, Ectonucleotide pyrophosphatase/phosphodiesterase family member 1; experiment: Inhibition of ENPP1 (unknown origin) using TMP-pNP as substrate preincubated for 10 mins followed by substrate addition and measured immediately under pH 8.8 by absorbance based multimode plate reader analysis
[7] = biological target: T1, Ectonucleotide pyrophosphatase/phosphodiesterase family member 1; experiment: Inhibition of human ENPP-1 using 2',3'-cGAMP as substrate preincubated for 15 mins followed by substrate addition and measured after 30 mins by AMP-Glo reagent based assay
[8] = biological target: T1, Ectonucleotide pyrophosphatase/phosphodiesterase family member 1; experiment: Inhibition of recombinant human ENPP-1 using AMP-pNP as substrate incubated for 20 mins by absorbance based plate reader analysis
[9] = Cmax in ICR mouse at 5 mg/kg, po measured after 24 hrs by LC/MS/MS analysis; format: ADME, organism-based; settings: in vivo
[10] = AUC in ICR mouse at 5 mg/kg, po measured after 24 hrs by LC/MS/MS analysis; format: ADME, organism-based; settings: in vivo
[11] = Half-life in ICR mouse at 5 mg/kg, po measured after 24 hrs by LC/MS/MS analysis; format: ADME, organism-based; settings: in vivo
[12] = biological target: T1, Ectonucleotide pyrophosphatase/phosphodiesterase family member 1; experiment: Inhibition of ENNP1 (unknown origin) using 2',3'-cGAMP as substrate preincubated with compound followed by substrate addition and measured after 60 mins by AMP-Glo reagent based assay
[13] = biological target: T1, Ectonucleotide pyrophosphatase/phosphodiesterase family member 1; experiment: Inhibition of recombinant human ENPP1 using 2',3'-cGAMP as substrate preincubated for 5 to 10 mins followed by substrate addition and measured after 90 mins by […] assay
MDA-MB-231 = experiment: Antiproliferative activity against human MDA-MB-231 cells incubated for 48 hrs by CCK8 assay; settings: MDA-MB-231, 48 h
[14] = biological target: T1, Ectonucleotide pyrophosphatase/phosphodiesterase family member 1; experiment: Inhibition of recombinant human ENPP1 using p-NP-TMP as substrate incubated for 45 mins by absorbance based analysis
[15] = biological target: T1, Ectonucleotide pyrophosphatase/phosphodiesterase family member 1; experiment: Inhibition of ENPP1 in HEK293 cells using 2',3'-cGAMP as substrate by AMP-Glo assay; format: cell-based
[16] = biological target: T3, Ectonucleotide pyrophosphatase/phosphodiesterase family member 1 (Homo sapiens) (UniProt P22413); experiment: Binding affinity to recombinant human ENPP1 assessed as thermal stabilization by measuring change in melting temperature incubated for 5 mins by SYPRO orange dye based thermal shift assay
T3 sequence (whole entry): T1 sequence (P22413 whole entry)

Question: Which results are given for COc1cccc2c(N3CCC(CCP(=O)(O)O)CC3)ncnc12?
Answer: Ki [1]: < 2 nM; AUC(0-t) at 24 h [2]: 344 ng·h/mL; Ki [3]: 4 nM; Cmax [4]: 67.2 ng/mL

Question: Which Ki [5] does the source give for Nc1ncnc2c1ncn2[C@@H](C=O)O[C@@H](C=O)COP(=O)(O)OP(=O)(O)OP(=O)(O)O here?
Answer: 5 µM

Question: Which Ki [5] does the source give for Nc1ncnc2c1ncn2[C@@H]1O[C@H](COP(=O)(O)CP(=O)(O)O)[C@@H](O)[C@H]1O [PHOSPHOMETHYLPHOSPHONIC ACID ADENOSYL ESTER] here?
Answer: 5 µM

Question: With NC(=O)c1c[nH]c2c(NCc3ccc(P(=O)(O)O)cc3)ncnc12 as the molecule, how does the Ki [6] read?
Answer: < 100 nM

Question: With NC(=O)c1ccc2c(ncn2Cc2ccc(B(O)O)cc2)n1 as the molecule, how does the IC50 [6] read?
Answer: < 10 nM

Question: With CSc1nc(N)c2ncn([C@@H]3O[C@H](COP(=O)(O)OP(=O)(O)OP(=O)(O)O)[C@@H](O)[C@H]3O)c2n1 as the molecule, how does the Ki [5] read?
Answer: 5 µM

Question: With COc1cc2ncc3ncn(Cc4ccc(CS(N)(=O)=O)cn4)c3c2cc1OC as the molecule, how does the IC50 [7] read?
Answer: < 100 nM

Question: And the IC50 [8]?
Answer: < 100 nM

Question: With CSc1nc(N)c2ncn([C@@H]3O[C@H](COP(=O)(O)OP(=O)(O)O)[C@@H](O)[C@H]3O)c2n1 as the molecule, how does the Ki [5] read?
Answer: 5 µM

Question: For COc1ccc2c(Oc3ccc(CC(=O)NO)cc3)ccnc2n1, which Cmax [9] is on record?
Answer: 736 ng/mL

Question: What about the AUC at 24 h [10] of the same molecule?
Answer: 619 ng·h/mL

Question: What about the half-life [11] of the same molecule?
Answer: 196 min

Question: With COc1ncc2nc(C(F)(F)F)n(Cc3ncc(S(N)(=O)=O)cc3F)c2c1-c1ccccc1 as the molecule, how does the IC50 [12] read?
Answer: < 1 nM

Question: Which IC50 [13] does the source give for COc1ccc2c(c1)nnn2-c1ccc(CNS(N)(=O)=O)c(F)c1 here?
Answer: < 1000 nM

Question: With COc1cccc2c(N3CCC(CCP(=O)(O)O)CC3)c(C#N)cnc12 as the molecule, how does the Ki [1] read?
Answer: < 2 nM

Question: For COc1ccc2[nH]c(SCc3nc4cc(F)ccc4c(=O)[nH]3)nc2c1, which IC50 (MDA-MB-231) is on record?
Answer: < 1000 nM

Question: With COc1ccc(NC(=O)CSc2nc(C(=O)O)c[nH]2)cc1Cl as the molecule, how does the IC50 [14] read?
Answer: < 200 nM

Question: With Nc1ncnc2c1ncn2[C@@H]1O[C@H](COP(=O)(O)OP(=O)(O)OP(=O)(O)O)[C@@H](OC(=O)c2ccc(C(=O)c3ccccc3)cc2)[C@H]1O as the molecule, how does the Ki [5] read?
Answer: 5 µM

Question: Which Ki [1] does the source give for COc1cccc2c(N3CCC(CC(CNC(=O)[C@@H](N)C(C)(C)C)P(=O)(O)O)CC3)ncnc12 (stereo partly specified) here?
Answer: < 10 nM

Question: And the IC50 [15]?
Answer: < 10 nM

Question: What about the AUC(0-t) at 24 h [2] of the same molecule?
Answer: 4130 ng·h/mL

Question: What about the Cmax [4] of the same molecule?
Answer: 1680 ng/mL

Question: For COc1ccc(NC(=O)CSc2nc(C(N)=O)c[nH]2)cc1OC, which IC50 [14] is on record?
Answer: < 200 nM

Question: With COc1cc2c(-c3ccc(CNS(N)(=O)=O)c(F)c3)n[nH]c(=O)c2cc1OC as the molecule, how does the IC50 [13] read?
Answer: < 1000 nM

Question: With COc1ccc(NC(=O)CSc2nc3c(C)c(C#N)ncc3[nH]2)cc1O as the molecule, how does the ΔTm [16] read?
Answer: 1.11 °C

Question: With NC(=O)c1c[nH]c2c(NCc3ccc(B(O)O)cc3)ncnc12 as the molecule, how does the Ki [6] read?
Answer: < 100 nM

Question: Which IC50 [14] does the source give for COc1ccc(NC(=O)CSc2nc(C(=O)OCC(O)CO)c[nH]2)cc1OC (stereo unspecified) here?
Answer: < 200 nM

Question: For Nc1ccc(F)c(-c2ccnc3c2CCC(=O)N3)c1, which IC50 [13] is on record?
Answer: < 1000 nM
